The values that follow come from patent publication US20250127844A1, “PEPTIDE HAVING HAIR LOSS PREVENTION OR HAIR GROWTH PROMOTION ACTIVITY AND USE THEREOF” (CAREGEN CO., LTD., priority 2021, published 2025).

Experiment [1] deals with human hair follicle dermal papilla cells (HHFDPC). Nature of the experiment: MTT proliferation of dermal papilla cells. The note with it: peptide 500 nM, 5 μM, 50 μM, 72 hours, vs untreated control, FIG. 1. Type of experiment: cell-based. The procedure: While culturing human hair follicle dermal papilla cells (HHFDPC), the absorbance was measured after treatment with the peptide of the present invention to confirm whether there was an effect of promoting the proliferation of the HHFDPC dermal papilla cells.
Specifically, HHFDPC (Sciencell, USA) was seeded at 4×10^3 cells/well in a 96-well culture plate, cultured in MSC complete medium (mesenchymal stem cell complete media, Sciencell, USA) for 24 hours, and then the medium was replaced with serum free MSC complete medium and cultured for another 24 hours. Then, the HHFDPC was treated with the peptide of SEQ ID NO: 1 prepared in the Preparation Example at concentrations of 500 nM, 5 μM, and 50 μM, respectively, and cultured at 37° C. for 72 hours. As a positive control, minoxidil was treated at a concentration of 1 μM, and as a negative control, HHFDPC without any treatment was used. Then, 10 μ ? of 5 mg/mL MTT solution was added and cultured in a 37° C. CO2 incubator for 4 hours to stain the cells. After removing the medium, the cells were treated with 100 μl of DMSO and shaken for 10 minutes, and the number of HHFDPC cells was confirmed by measuring absorbance at a wavelength of 540 nm using a spectrophotometer.

The test system of a further experiment is p-AKT. As to the kind of experiment: Western blotting of phosphorylated AKT in HHFDPC. Type of experiment: cell-based, human. The conditions noted are these: peptide 500 nM, 5 μM, 50 μM, 24 hours, vs untreated control, FIG. 2. The protocol:
(§1) First, phosphorylated forms of AKT and ERK, which act as signaling molecules related to the proliferation of HHFDPC, were confirmed through Western blotting. Specifically, HHFDPC as in [Experiment Example 1-1] above was seeded at 4×10^5 cells/well in a 6-well culture plate, cultured in MSC complete medium (mesenchymal stem cell complete media) for 24 hours, and then the medium was replaced with serum free MSC complete medium and cultured for another 24 hours. Then, the HHFDPC was treated with the peptide of SEQ ID NO: 1 prepared in the Preparation Example at concentrations of 500 nM, 5 μM, and 50 μM, respectively, and cultured at 37° C. for 24 hours. As a positive control, minoxidil was treated at a concentration of 1 μM, and as a negative control, HHFDPC without any treatment was used. Then, Western blotting was performed to detect phosphorylated AKT and phosphorylated ERK. After washing with PBS, the cells were treated with 100 μ ? of lysis buffer to destroy cells, thereby obtaining cell lysate. After electrophoresis using a 10% SDS-PAGE gel, it was transferred to a PVDF membrane and blocked using 5% skim milk at room temperature for 30 minutes. […] After washing again with 0.1% PBS-T (0.1% Tween-20 in PBS) three times for 15 minutes each, p-AKT and p-ERK were detected by treatment with ECL solution (GE Healthcare, USA).

The subject of another experiment is p-ERK. As to the kind of experiment: Western blotting of phosphorylated ERK in HHFDPC. Type of experiment: cell-based, human. The conditions noted are these: peptide 500 nM, 5 μM, 50 μM, 24 hours, vs untreated control, FIG. 2. The protocol:
as §1

The test system of the next experiment is β-catenin. Nature of the experiment: Western blotting of β-catenin moved to the nucleus in HHFDPC. Format: cell-based, human. The conditions noted are these: HHFDPC nuclear protein, peptide 500 nM, 5 μM, 50 μM, 24 hours, vs untreated control, FIG. 3. The protocol: In addition, in addition to p-AKT and p-ERK, in order to confirm the activation of β-catenin, which is known to affect cell proliferation and differentiation, whether β-catenin moved into the nucleus was confirmed through Western blotting. Specifically, the HHFDPC as in [Experiment Example 1-1] was seeded in a 6-well culture plate at an amount of 4×10^5 cells/well, cultured in MSC complete medium (mesenchymal stem cell complete media) for 24 hours. Next, the medium was replaced with serum free MSC complete medium and cultured again for 24 hours. Then, the HHFDPC was treated with the peptide of SEQ ID NO: 1 prepared in the Preparation Example at concentrations of 500 nM, 5 μM, and 50 μM, respectively, and cultured at 37° C. for 24 hours. As a positive control, minoxidil was treated at a concentration of 1 μM, and as a negative control, HHFDPC without any treatment was used. After washing with PBS, proteins in the nucleus were isolated using a nuclear protein extraction kit (Thermo scientific, USA). After electrophoresis using a 10% SDS-PAGE gel, it was transferred to a PVDF membrane and blocked using 5% skim milk at room temperature for 30 minutes. […] After washing again with 0.1% PBS-T (0.1% Tween-20 in PBS) three times for 15 minutes each, β-catenin was detected by treatment with ECL solution (GE Healthcare, USA).

The test system of a further experiment is LEF-1. Nature of the experiment: RT-PCR of LEF-1 expression in HHFDPC. Format: cell-based, human. The conditions noted are these: peptide 500 nM, 5 μM, 50 μM, 24 hours, vs untreated control, FIG. 4. The procedure: (§2) Furthermore, in order to determine whether the β-catenin moves to the nucleus and is activated to affect proliferation and differentiation, whether the expression of LEF-1, c-Myc and cyclin D1 (cyclin D1), which act as downstream factors, increases with β-catenin activation was confirmed through RT-PCR. Specifically, in the same manner as the previous Western blotting experiment, HHFDPC cells were cultured, treated with the peptides of the Preparation Example of the present invention at concentrations of 500 nM, 5 μM, and 50 μM, respectively, and cultured at 37° C. for 24 hours. After washing the cells with PBS, RNA was isolated by treating them with 300 μ ? of easy blue (intron, Korea). Then, cDNA was synthesized using a cDNA synthesis kit (enzynomics, Korea) by quantifying it with nano drop, and PCR was performed using primers for LEF-1, c-Myc and cyclin D1 (base sequences of the primer are listed in Table 2 below) and PCR premix (enzynomics, Korea). Electrophoresis was performed on a 1.5% agarose gel, and then the mRNA of LEF-1, c-Myc, c-Myc and cyclin D1 was detected using a band analysis system (Bio-Rad gel image system).

The next experiment relates to c-Myc. Nature of the experiment: RT-PCR of c-Myc expression in HHFDPC. Type of experiment: cell-based, human. The note with it: peptide 500 nM, 5 μM, 50 μM, 24 hours, vs untreated control, FIG. 4. The procedure:
as §2

A further experiment relates to cyclin D1. As to the kind of experiment: RT-PCR of cyclin D1 expression in HHFDPC. Format: cell-based, human. The note with it: peptide 500 nM, 5 μM, 50 μM, 24 hours, vs untreated control, FIG. 4. The protocol:
as §2

The test system of another experiment is DKK-1 protein. Nature of the experiment: Western blotting of DKK-1 protein in DHT-treated HHFDPC. Format: cell-based, human. The conditions noted are these: HHFDPC with DHT 100 nM, peptide 500 nM, 5 μM, 50 μM, 24 hours, vs DHT-only negative control, FIG. 5. The protocol:
DKK-1 protein (dickkopf-related protein 1) is a hair loss-related protein known to be highly expressed in individuals with hair loss, especially male pattern hair loss, and its expression is known to be promoted by hormones such as DHT (Dihydrotestosterone). Accordingly, the expression of DKK-1 protein was induced by treating HHFDPC cells with DHT together with the peptide according to the Preparation Example of the present invention, and then the expression level of DKK-1 was measured through Western blotting to determine whether there was an effect of suppressing the expression of DKK-1 protein.
Specifically, HHFDPC as in [Experiment Example 1-1] was seeded in a 6-well culture plate at 4×10^5 cells/well and then cultured in MSC complete medium (mesenchymal stem cell complete media) for 24 hours. Next, the medium was replaced with serum free MSC complete medium and cultured again for 24 hours. In addition, the HHFDPC was treated with the peptide of SEQ ID NO: 1 prepared in the Preparation Example at concentrations of 500 nM, 5 μM, and 50 μM, respectively, and at this time, DHT, an expression inducer of DKK-1 protein, was simultaneously treated at a concentration of 100 nM and then cultured at 37° C. for 24 hours. […] After washing again with 0.1% PBS-T (0.1% Tween-20 in PBS) three times for 15 minutes each, DKK-1 protein was detected by treatment with ECL solution (GE Healthcare, USA).

The next experiment concerns Ha3-II. Nature of the experiment: RT-PCR of Ha3-II expression in HHORSC. Format: cell-based, human. The note with it: peptide 500 nM, 5 μM, 50 μM, 72 hours, vs untreated control, FIG. 6. The procedure:
(§3) Specifically, HHORSC (human hair outer root sheath cell, Sciencell, USA) was seeded in a 6-well culture plate at 4×10^5 cells/well and then cultured in MSC complete medium (mesenchymal stem cell complete media) for 24 hours. Next, the medium was replaced with serum free MSC complete medium and cultured again for 24 hours. Then, the HHORSC was treated with the peptide of SEQ ID NO: 1 prepared in the Preparation Example at concentrations of 500 nM, 5 μM, and 50 μM, respectively, and cultured at 37° C. for 72 hours. As a positive control, EGF was treated at a concentration of 50 nM, and as a negative control, HHORSC without any treatment was used. After washing with PBS, RNA was isolated by treating with 300 μ ? of easy blue (intron, Korea). Then, cDNA was synthesized using a cDNA synthesis kit (enzynomics, Korea) by quantification using nano drop, and PCR was performed using primers for Ha3-II, Keratin 14, and Keratin 19 (base sequences of primer are listed in Table 3 below) and PCR premix (enzynomics, Korea). Electrophoresis was performed on a 1.5% agarose gel, and the mRNAs of Ha3-II, Keratin 14, and Keratin 19 were detected using a band analysis system (Bio-Rad gel image system).

The next experiment relates to Keratin 14. Nature of the experiment: RT-PCR of Keratin 14 expression in HHORSC. Format: cell-based, human. The conditions noted are these: peptide 500 nM, 5 μM, 50 μM, 72 hours, vs untreated control, FIG. 6. The protocol:
as §3

A further experiment relates to Keratin 19. As to the kind of experiment: RT-PCR of Keratin 19 expression in HHORSC. Type of experiment: cell-based, human. The conditions noted are these: peptide 500 nM, 5 μM, 50 μM, 72 hours, vs untreated control, FIG. 6. The protocol:
as §3

For a further experiment, the system named is MSX2. As to the kind of experiment: RT-PCR of MSX2 expression in HHGMC. The note with it: peptide 500 nM, 5 μM, 50 μM, 72 hours, vs untreated control, FIG. 7. Type of experiment: cell-based, human. The protocol:
Specifically, HHGMC (human hair germinal matrix cell, Sciencell, USA) was seeded in a 6-well culture plate at 4×10^5 cells/well and then cultured in MSC complete medium (mesenchymal stem cell complete media) for 24 hours. Next, the medium was replaced with serum free MSC complete medium and cultured again for 24 hours. Then, the HHGMC was treated with the peptide of SEQ ID NO: 1 prepared in the Preparation Example at concentrations of 500 nM, 5 μM, and 50 μM, respectively, and cultured at 37° C. for 72 hours. As a positive control, EGF was treated at a concentration of 50 nM, and as a negative control, HHGMC without any treatment was used. After washing with PBS, RNA was isolated by treating with 300 μ ? of easy blue (intron, Korea). Next, cDNA was synthesized using a cDNA synthesis kit (enzynomics, Korea) by quantification using nano drop, and PCR was performed using primers for MSX2 (base sequences of primer are listed in Table 4 below) and PCR premix (enzynomics, Korea). Electrophoresis was performed on a 1.5% agarose gel, and MSX2 mRNA was detected using a band analysis system (Bio-Rad gel image system).

As to “QHNQIRYFEE [peptide of the present invention]”, the “proliferation of HHFDPC (absorbance at 540 nm, MTT)” value in experiment [1] is recorded as “proliferation of HHFDPC was promoted depending on the concentration of the treated peptide”. Moreover, the “phosphorylated AKT (p-AKT)” value with p-AKT is recorded as “phosphorylation was found to be increased”. Also, the “phosphorylated ERK (p-ERK)” value with p-ERK is recorded as “phosphorylation was found to be increased”. Besides, in the experiment on β-catenin, the “β-catenin moved to the nucleus” value is “migration due to activation of β-catenin increased”. Besides, the “LEF-1 mRNA” value in the experiment on LEF-1 was “the amount of mRNA increased further”. For the same sequence, the “c-Myc mRNA” value in the experiment on c-Myc was “the amount of mRNA increased further”. In addition, the “cyclin D1 mRNA” value with cyclin D1 is given as “the amount of mRNA increased further”. The “amount of DKK-1 protein” value in the experiment with DKK-1 protein was “the amount of DKK-1 protein was found to be reduced”. In addition, the “Ha3-II mRNA” value in the experiment on Ha3-II is “the amount of mRNA increased further”. Moreover, in the experiment on Keratin 14, the “Keratin 14 mRNA” value was “the amount of mRNA increased further”. Further, in the experiment with Keratin 19, the “Keratin 19 mRNA” value is listed as “the amount of mRNA increased further”. Besides, in the experiment with MSX2, the “MSX2 mRNA” value is “the amount of mRNA increased further”.
